According to ChEMBL document CHEMBL1201861, “Genomics of Drug Sensitity in Cancer screening data, Wellcome Trust Sanger Institute”:

Tests used:
Assay in all cases: cells
Format in all cases: functional, cell-based
Conditions in all cases: Homo sapiens
[1] = system: DB
Description: SANGER: Inhibition of human DB cell growth in a cell viability assay.

[2] = system: DSH1;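 further: growth inhibition of human DSH1 cells, measured with a cell viability readout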
Description: SANGER: Inhibition of human DSH1 cell growth in a cell viability assay.

[3] = system: ES1;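 further: growth inhibition of ES1 cells, read out with a cell viability assay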
Description: SANGER: Inhibition of human ES1 cell growth in a cell viability assay.

[4] = system: ES7;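 further: growth inhibition of cultured human ES7 cells, read out as cell viability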
Description: SANGER: Inhibition of human ES7 cell growth in a cell viability assay.

[5] = system: EW-1;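 further: growth inhibition of the human EW-1 cell line, read out by a cell viability assay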
Description: SANGER: Inhibition of human EW-1 cell growth in a cell viability assay.

[6] = system: GR-ST
Description: SANGER: Inhibition of human GR-ST cell growth in a cell viability assay.

[7] = system: HC-1;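 further: growth inhibition of HC-1 cells measured by a cell viability assay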
Description: SANGER: Inhibition of human HC-1 cell growth in a cell viability assay.

[8] = system: HT
Description: SANGER: Inhibition of human HT cell growth in a cell viability assay.

[9] = system: HT-144
Description: SANGER: Inhibition of human HT-144 cell growth in a cell viability assay.

[10] = system: IA-LM;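 further: cell viability assay measuring growth inhibition of human IA-LM cells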
Description: SANGER: Inhibition of human IA-LM cell growth in a cell viability assay.

[11] = system: K562
Description: SANGER: Inhibition of human K-562 cell growth in a cell viability assay.

[12] = system: KARPAS-299
Description: SANGER: Inhibition of human KARPAS-299 cell growth in a cell viability assay.

[13] = system: KMOE-2;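 further: growth inhibition of human KMOE-2 cells, read out with a cell viability assay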
Description: SANGER: Inhibition of human KMOE-2 cell growth in a cell viability assay.

[14] = system: LAN-6;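 further: growth inhibition of LAN-6 cells, determined with a cell viability assay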
Description: SANGER: Inhibition of human LAN-6 cell growth in a cell viability assay.

[15] = system: LB2518-MEL;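 further: growth inhibition of human LB2518-MEL cells, measured with a cell viability assay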
Description: SANGER: Inhibition of human LB2518-MEL cell growth in a cell viability assay.

[16] = system: LB373-MEL-D;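 further: growth inhibition of the cell line, read out in a cell viability assay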
Description: SANGER: Inhibition of human LB373-MEL-D cell growth in a cell viability assay.

[17] = system: LB771-HNC;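 further: growth inhibition of LB771-HNC human cells, read out with a cell viability assay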
Description: SANGER: Inhibition of human LB771-HNC cell growth in a cell viability assay.

[18] = system: LC-2-ad;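 further: growth inhibition of human LC-2-ad cells, read out with a cell viability assay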
Description: SANGER: Inhibition of human LC-2-ad cell growth in a cell viability assay.

[19] = system: LOX IMVI
Description: SANGER: Inhibition of human LOXIMVI cell growth in a cell viability assay.

[20] = system: LS-513
Description: SANGER: Inhibition of human LS-513 cell growth in a cell viability assay.

[21] = system: LU-139
Description: SANGER: Inhibition of human LU-139 cell growth in a cell viability assay.

[22] = system: LXF-289 cell line
Description: SANGER: Inhibition of human LXF-289 cell growth in a cell viability assay.

[23] = system: MC116;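 further: growth inhibition of MC116 cells, read out with a cell viability assay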
Description: SANGER: Inhibition of human MC116 cell growth in a cell viability assay.

[24] = system: MFM-223
Description: SANGER: Inhibition of human MFM-223 cell growth in a cell viability assay.

[25] = system: MLMA;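 further: growth inhibition of MLMA cells (human), determined through a cell viability readout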
Description: SANGER: Inhibition of human MLMA cell growth in a cell viability assay.

[26] = system: MMAC-SF;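 further: growth inhibition of human MMAC-SF cells, read out with a cell viability assay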
Description: SANGER: Inhibition of human MMAC-SF cell growth in a cell viability assay.

[27] = system: MZ1-PC;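 further: cell viability assay measuring growth inhibition of human MZ1-PC cells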
Description: SANGER: Inhibition of human MZ1-PC cell growth in a cell viability assay.

[28] = system: MZ7-mel;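 further: growth inhibition of human MZ7-mel cells, measured by a cell viability assay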
Description: SANGER: Inhibition of human MZ7-mel cell growth in a cell viability assay.

[29] = system: Mo
Description: SANGER: Inhibition of human Mo-T cell growth in a cell viability assay.

[30] = system: NB5;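 further: growth inhibition of NB5 cells, read out as cell viability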
Description: SANGER: Inhibition of human NB5 cell growth in a cell viability assay.

[31] = system: NB6;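 further: growth inhibition of NB6 cells, read out by a cell viability assay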
Description: SANGER: Inhibition of human NB6 cell growth in a cell viability assay.

[32] = system: NCI-H1092;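 further: cell growth inhibition measured with a cell viability assay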
Description: SANGER: Inhibition of human NCI-H1092 cell growth in a cell viability assay.

[33] = system: NCI-H1304;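 further: growth inhibition of the cancer cell line, measured in a cell viability assay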
Description: SANGER: Inhibition of human NCI-H1304 cell growth in a cell viability assay.

[34] = system: NCI-H1650;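 further: growth inhibition of human NCI-H1650 cells measured by a cell viability assay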
Description: SANGER: Inhibition of human NCI-H1650 cell growth in a cell viability assay.

[35] = system: NCI-H1838;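 further: growth inhibition of NCI-H1838 cells, determined with a cell viability readout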
Description: SANGER: Inhibition of human NCI-H1838 cell growth in a cell viability assay.

[36] = system: NCI-H226;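 further: cell viability read-out used to gauge growth inhibition of the cells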
Description: SANGER: Inhibition of human NCI-H226 cell growth in a cell viability assay.

[37] = system: NCI-H446;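 further: growth inhibition of NCI-H446 cells determined by a cell viability assay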
Description: SANGER: Inhibition of human NCI-H446 cell growth in a cell viability assay.

[38] = system: NCI-H82;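 further: growth inhibition of NCI-H82 cells, measured with a cell viability readout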
Description: SANGER: Inhibition of human NCI-H82 cell growth in a cell viability assay.

[39] = system: SNU-5;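 further: cell viability readout used to measure growth inhibition in human NCI-SNU-5 cells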
Description: SANGER: Inhibition of human NCI-SNU-5 cell growth in a cell viability assay.

[40] = system: NH-12;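 further: growth inhibition of NH-12 cells, read out with a cell viability assay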
Description: SANGER: Inhibition of human NH-12 cell growth in a cell viability assay.

[41] = system: NMC-G1;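 further: growth inhibition of the NMC-G1 cell line, measured with a cell viability read-out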
Description: SANGER: Inhibition of human NMC-G1 cell growth in a cell viability assay.

[42] = system: OCI-AML2;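 further: growth inhibition of OCI-AML2 cells, read out with a cell viability assay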
Description: SANGER: Inhibition of human OCI-AML2 cell growth in a cell viability assay.

[43] = system: OCUB-M;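 further: growth inhibition of the cancer cell line, read out through a cell viability assay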
Description: SANGER: Inhibition of human OCUB-M cell growth in a cell viability assay.

[44] = system: OVCAR-4;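 further: growth inhibition of human OVCAR-4 cells, measured with a cell viability assay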
Description: SANGER: Inhibition of human OVCAR-4 cell growth in a cell viability assay.

[45] = system: PSN1;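 further: suppression of growth of human PSN1 cells, read out by a cell viability assay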
Description: SANGER: Inhibition of human PSN1 cell growth in a cell viability assay.

[46] = system: RCC10RGB;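 further: growth inhibition of human RCC10RGB cells, read out by a cell viability assay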
Description: SANGER: Inhibition of human RCC10RGB cell growth in a cell viability assay.

[47] = system: RKO;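 further: growth inhibition of human RKO cells, read out with a cell viability assay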
Description: SANGER: Inhibition of human RKO cell growth in a cell viability assay.

[48] = system: RPMI-8226
Description: SANGER: Inhibition of human RPMI-8226 cell growth in a cell viability assay.

[49] = system: Ramos-2G6-4C10;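 further: growth inhibition of the cell line, measured by a cell viability read-out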
Description: SANGER: Inhibition of human Ramos-2G6-4C10 cell growth in a cell viability assay.

[50] = system: SF-268;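 further: growth inhibition of SF-268 cells determined with a cell viability assay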
Description: SANGER: Inhibition of human SF268 cell growth in a cell viability assay.

[51] = system: SK-PN-DW;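 further: growth inhibition measured with a viability assay on these cells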
Description: SANGER: Inhibition of human SK-PN-DW cell growth in a cell viability assay.

[52] = system: SK-UT-1;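 further: growth inhibition of SK-UT-1 cells, measured by a cell viability assay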
Description: SANGER: Inhibition of human SK-UT-1 cell growth in a cell viability assay.

[53] = system: SNU-C2B;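 further: cell viability readout used to measure compound-driven suppression of SNU-C2B cell proliferation, IC50 marking half-maximal growth inhibition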
Description: SANGER: Inhibition of human SNU-C2B cell growth in a cell viability assay.

[54] = system: 697
Description: SANGER: Inhibition of human 697 cell growth in a cell viability assay.

[55] = system: 8-MG-BA;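 further: growth inhibition of 8-MG-BA cells, read out with a cell viability assay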
Description: SANGER: Inhibition of human 8-MG-BA cell growth in a cell viability assay.

[56] = system: A101D;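 further: growth inhibition of the cell line, measured with a viability assay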
Description: SANGER: Inhibition of human A101D cell growth in a cell viability assay.

[57] = system: BB30-HNC;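 further: growth inhibition of the cultured cell line, read out by a cell viability assay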
Description: SANGER: Inhibition of human BB30-HNC cell growth in a cell viability assay.

[58] = system: BE-13;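 further: growth inhibition of human BE-13 cells, measured with a cell viability assay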
Description: SANGER: Inhibition of human BE-13 cell growth in a cell viability assay.

[59] = system: BT-474
Description: SANGER: Inhibition of human BT-474 cell growth in a cell viability assay.

[60] = system: TE-10;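 further: growth inhibition of TE-10 cells, measured by a cell viability assay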
Description: SANGER: Inhibition of human TE-10 cell growth in a cell viability assay.

[61] = system: TE-6;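 further: growth inhibition of TE-6 cells, read out with a cell viability assay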
Description: SANGER: Inhibition of human TE-6 cell growth in a cell viability assay.

[62] = system: TE-8;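 further: growth inhibition of TE-8 cells, measured with a cell viability readout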
Description: SANGER: Inhibition of human TE-8 cell growth in a cell viability assay.

[63] = system: TE-9
Description: SANGER: Inhibition of human TE-9 cell growth in a cell viability assay.

[64] = system: UACC-257
Description: SANGER: Inhibition of human UACC-257 cell growth in a cell viability assay.

[65] = system: CCRF-CEM
Description: SANGER: Inhibition of human CCRF-CEM cell growth in a cell viability assay.

[66] = system: CGTH-W-1
Description: SANGER: Inhibition of human CGTH-W-1 cell growth in a cell viability assay.

Cn1cc(/C=C2\C(=O)Nc3cccnc32)c2ccccc21
IC50 [1]: > 2 µM | IC50 [2]: > 2 µM | IC50 [3]: > 2 µM | IC50 [4]: > 2 µM | IC50 [5]: > 2 µM | IC50 [6]: > 2 µM | IC50 [7]: > 2 µM | IC50 [8]: > 2 µM | IC50 [9]: > 2 µM | IC50 [10]: > 2000 nM | IC50 [11]: > 2 µM | IC50 [12]: > 2 µM | IC50 [13]: > 2 µM | IC50 [14]: > 2 µM | IC50 [15]: > 2 µM | IC50 [16]: > 2 µM | IC50 [17]: > 2 µM | IC50 [18]: > 2 µM | IC50 [19]: > 2 µM | IC50 [20]: > 2 µM | IC50 [21]: > 2 µM | IC50 [22]: > 2 µM | IC50 [23]: > 2 µM | IC50 [24]: > 2 µM | IC50 [25]: > 2 µM | IC50 [26]: > 2 µM | IC50 [27]: > 2 µM | IC50 [28]: > 2 µM | IC50 [29]: > 2 µM | IC50 [30]: > 2 µM | IC50 [31]: > 2 µM | IC50 [32]: > 2 µM | IC50 [33]: > 2 µM | IC50 [34]: > 2 µM | IC50 [35]: > 2 µM | IC50 [36]: > 2 µM | IC50 [37]: > 2 µM | IC50 [38]: > 2 µM | IC50 [39]: > 2 µM | IC50 [40]: > 2 µM | IC50 [41]: > 2 µM | IC50 [42]: > 2 µM | IC50 [43]: > 2000 nM | IC50 [44]: > 2 µM | IC50 [45]: > 2 µM | IC50 [46]: > 2 µM | IC50 [47]: > 2000 nM | IC50 [48]: > 2 µM | IC50 [49]: > 2 µM | IC50 [50]: > 2 µM | IC50 [51]: > 2 µM | IC50 [52]: > 2 µM | IC50 [53]: > 2 µM | IC50 [54]: > 2 µM | IC50 [55]: > 2 µM | IC50 [56]: > 2000 nM | IC50 [57]: > 2 µM | IC50 [58]: > 2 µM | IC50 [59]: > 2 µM | IC50 [60]: > 2000 nM | IC50 [61]: > 2 µM | IC50 [62]: > 2000 nM | IC50 [63]: > 2 µM | IC50 [64]: 1530 nM | IC50 [65]: > 2 µM | IC50 [66]: > 2 µM

N#C/C(=C1/Nc2ccccc2S1)c1ccnc(NCCc2cccnc2)n1
IC50 [1]: > 8 µM | IC50 [2]: > 8 µM | IC50 [3]: > 8 µM | IC50 [4]: 3.03 µM | IC50 [5]: > 8 µM | IC50 [6]: > 8 µM | IC50 [7]: > 8 µM | IC50 [8]: > 8 µM | IC50 [9]: > 8 µM | IC50 [10]: 2730 nM | IC50 [11]: > 8 µM | IC50 [12]: > 8 µM | IC50 [13]: > 8 µM | IC50 [14]: > 8 µM | IC50 [15]: > 8 µM | IC50 [16]: > 8 µM | IC50 [17]: > 8 µM | IC50 [18]: > 8 µM | IC50 [19]: > 8 µM | IC50 [20]: > 8 µM | IC50 [21]: > 8 µM | IC50 [22]: > 8 µM | IC50 [23]: 3.17 µM | IC50 [24]: > 8 µM | IC50 [25]: > 8 µM | IC50 [26]: > 8 µM | IC50 [27]: > 8 µM | IC50 [28]: > 8 µM | IC50 [29]: > 8 µM | IC50 [30]: > 8 µM | IC50 [31]: > 8 µM | IC50 [32]: > 8 µM | IC50 [33]: > 8 µM | IC50 [34]: > 8 µM | IC50 [35]: > 8 µM | IC50 [36]: > 8 µM | IC50 [37]: > 8 µM | IC50 [38]: > 8 µM | IC50 [39]: > 8 µM | IC50 [40]: > 8 µM | IC50 [41]: 6.12 µM | IC50 [42]: 4.65 µM | IC50 [43]: 1080 nM | IC50 [44]: 5.7 µM | IC50 [45]: > 8 µM | IC50 [46]: > 8 µM | IC50 [47]: 2310 nM | IC50 [48]: > 8 µM | IC50 [49]: > 8 µM | IC50 [50]: > 8 µM | IC50 [51]: > 8 µM | IC50 [52]: 7.5 µM | IC50 [53]: 7.85 µM | IC50 [54]: > 8 µM | IC50 [55]: 3.68 µM | IC50 [56]: 2220 nM | IC50 [57]: > 8 µM | IC50 [58]: > 8 µM | IC50 [59]: > 8 µM | IC50 [60]: 2230 nM | IC50 [61]: > 8 µM | IC50 [62]: 2910 nM | IC50 [63]: 6.49 µM | IC50 [64]: > 8000 nM | IC50 [65]: > 8 µM | IC50 [66]: 5.54 µM
